Assay results reported in patent US10065990B2, “Cyclic peptide compound, and preparation method, pharmaceutical composition and use thereof” (HANGZHOU GUANYU BIO-MEDICAL CO., LTD, priority 2013, dated 2018).
pIC50: −log10 of the molar value. Where two headings read alike, the source gives them in different places.

Assays:
[1] = tested on: HT1080 (human fibrosarcoma cells); assay: MTT cancer cell growth inhibition; format: cell-based; details: Homo sapiens, HT-1080, 72 h, MTT
Summary of the method: (§1)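 Cells grown in DMEM or RPMI 1640 with 10% FBS were seeded at 1500/well and left overnight at 37° C., 5% CO2. Compounds at final 10^−5 to 10^−10 M were added in triplicate for 72 h. MTT was then added for 4 h, formazan dissolved in DMSO, and absorbance read at 570 nm to derive GI50.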

[2] = tested on: N-87 (human gastric cancer cells); assay: MTT cancer cell growth inhibition; format: cell-based; details: Homo sapiens, 72 h, MTT, 72 hours incubation, N-87 cells; read-out: GI50 N-87
Summary of the method: as §1

[3] = tested on: HCC827 (human non-small cell lung cancer cells); assay: MTT cancer cell growth inhibition; format: cell-based; details: Homo sapiens, HCC827, 72 h, MTT, 72 hours incubation, HCC827 cells; read-out: GI50 HCC827
Summary of the method: as §1

[4] = tested on: Bel-7402 (human hepatoma cells); assay: MTT cancer cell growth inhibition; format: cell-based; details: Homo sapiens, Bel-7402, 72 h, MTT, 72 hours incubation, Bel-7402 cells; read-out: GI50 Bel-7402
Summary of the method: as §1

[5] = tested on: K562 (human leukemia cells); assay: MTT cancer cell growth inhibition; format: cell-based; details: Homo sapiens, K562, 72 h, MTT, 72 hours incubation, K562 cells; read-out: GI50 K562
Summary of the method: as §1

[6] = biological target: HDAC1 (Homo sapiens, UniProt Q13547); assay: HDAC biochemical activity measurement (fluorescent substrate deacetylation);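 also: fluorogenic acetyl-lysine substrate (20 µM) deacetylated by HDAC1, then developer releases fluorophore read at 360 nm excitation and 460 nm emission, inhibitor incubated 30 min at 37 °C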
[7] = biological target: T1, HDAC8 (Homo sapiens, UniProt Q9BY41); assay: as above; details: 37° C. 30 minutes
T1 sequence (Q9BY41 1-377): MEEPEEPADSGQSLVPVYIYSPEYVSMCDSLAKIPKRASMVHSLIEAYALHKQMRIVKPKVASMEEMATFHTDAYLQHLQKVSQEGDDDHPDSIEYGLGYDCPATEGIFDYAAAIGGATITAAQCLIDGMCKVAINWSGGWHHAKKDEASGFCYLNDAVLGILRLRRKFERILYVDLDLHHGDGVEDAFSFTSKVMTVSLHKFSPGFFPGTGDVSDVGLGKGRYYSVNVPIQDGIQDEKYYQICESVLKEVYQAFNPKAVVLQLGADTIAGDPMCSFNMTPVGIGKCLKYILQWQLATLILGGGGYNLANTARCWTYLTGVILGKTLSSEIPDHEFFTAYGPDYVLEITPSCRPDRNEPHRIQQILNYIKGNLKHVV

[8] = biological target: T2, HDAC11 (Homo sapiens, UniProt Q96DB2); assay: as above;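 also: HDAC11 enzyme acting on an acetyl-lysine fluorogenic substrate, then a developer frees the fluorophore, read at excitation 360 nm and emission 460 nm, IC50 over a compound dilution series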
T2 sequence (Q96DB2 1-347): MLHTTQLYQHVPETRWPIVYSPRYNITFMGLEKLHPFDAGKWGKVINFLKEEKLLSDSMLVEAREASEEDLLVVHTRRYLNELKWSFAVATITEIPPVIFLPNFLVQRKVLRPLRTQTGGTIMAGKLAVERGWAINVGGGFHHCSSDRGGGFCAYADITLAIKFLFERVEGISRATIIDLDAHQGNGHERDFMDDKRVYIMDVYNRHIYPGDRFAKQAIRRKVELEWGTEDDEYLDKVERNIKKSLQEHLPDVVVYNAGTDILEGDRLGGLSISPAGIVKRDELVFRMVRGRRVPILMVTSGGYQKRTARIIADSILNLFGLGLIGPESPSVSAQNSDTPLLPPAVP
Description: The chemical activity of the compound is determined according to the degree of deacetylation inhibition of the HDAC enzyme. This experiment measured the degree of deacetylation related to tumor proliferation and metastasis of HDAC1, HDAC2, HDAC3, HDAC8, HDAC11 five subtypes HDAC enzymes. After the substrate containing an acetylated lysine side chain and HDAC enzyme are labeled with a fluorescent label, the fluorescent substrate is de acetyl. The fluorescent labeled substrate is cleaved by the enzyme, and the fluorescent substance is released, which generates 460 nm emission light under the excitation of 360 nm light.
HDAC substrate was diluted with reaction buffer to 200M (reaction concentration of 20M), the HDAC enzyme was diluted to the appropriate concentration, then added different concentrations of the test compounds and acted at 37° C. 30 minutes, and then added the same volume of 2-times concentration substrate developing solution (developer), incubated at room temperature for 15 minutes.

[9] = biological target: HDAC3 (Homo sapiens, UniProt O15379); assay: as above;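 also: fluorogenic acetyl-lysine substrate (20 µM) deacetylated by HDAC3, then developer added for 15 min at room temperature, release of fluorophore read at excitation 360 nm, emission 460 nm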
[10] = biological target: T3, HDAC7 (Homo sapiens, UniProt Q8WUI4); assay: as above; details: HDAC7; 37° C. 30 minutes;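 also: fluorogenic deacetylation assay using acetyl-lysine substrate at 20 µM, enzyme and compound incubated 30 min at 37 °C, then developer added, fluorescence read at 360/460 nm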
T3 sequence (Q8WUI4 1-952): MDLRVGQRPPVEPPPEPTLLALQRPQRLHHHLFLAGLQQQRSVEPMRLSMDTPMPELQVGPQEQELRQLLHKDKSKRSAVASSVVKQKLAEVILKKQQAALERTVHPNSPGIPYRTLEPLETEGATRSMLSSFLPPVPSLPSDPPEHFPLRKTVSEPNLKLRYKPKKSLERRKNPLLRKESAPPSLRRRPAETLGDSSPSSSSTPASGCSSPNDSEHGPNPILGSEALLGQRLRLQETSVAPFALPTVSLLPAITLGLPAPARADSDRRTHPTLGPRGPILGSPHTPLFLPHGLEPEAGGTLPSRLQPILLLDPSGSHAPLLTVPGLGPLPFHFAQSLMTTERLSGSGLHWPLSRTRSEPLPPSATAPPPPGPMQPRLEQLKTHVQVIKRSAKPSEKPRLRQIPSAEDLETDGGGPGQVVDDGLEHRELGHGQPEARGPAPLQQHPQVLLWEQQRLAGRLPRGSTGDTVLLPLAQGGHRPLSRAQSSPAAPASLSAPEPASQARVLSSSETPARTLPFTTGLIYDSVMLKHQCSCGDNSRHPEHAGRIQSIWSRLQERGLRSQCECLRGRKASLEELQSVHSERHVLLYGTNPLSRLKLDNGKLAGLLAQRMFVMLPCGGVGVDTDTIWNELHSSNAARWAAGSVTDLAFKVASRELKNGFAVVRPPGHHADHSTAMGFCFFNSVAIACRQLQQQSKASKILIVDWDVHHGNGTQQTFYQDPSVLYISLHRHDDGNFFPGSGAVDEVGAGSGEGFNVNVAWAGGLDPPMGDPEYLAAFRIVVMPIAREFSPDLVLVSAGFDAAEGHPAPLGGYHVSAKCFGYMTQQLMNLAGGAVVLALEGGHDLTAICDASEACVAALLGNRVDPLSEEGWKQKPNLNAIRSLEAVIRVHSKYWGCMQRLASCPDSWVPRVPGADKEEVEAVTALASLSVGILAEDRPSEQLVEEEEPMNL

[11] = biological target: HDAC2 (Homo sapiens, UniProt Q92769); assay: as above; details: 37° C. 30 minutes;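 also: HDAC2 enzyme with an acetyl-lysine fluorescent substrate, then developer added, fluorescence read at excitation 360 nm and emission 460 nm, inhibition measured across several compound concentrations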
[12] = 72 hours incubation, read-out: GI50 HT1
[13] = HDAC1, 37° C. 30 minutes, read-out: IC50 HDAC1
[14] = Table 3, read-out: IC50 HDAC1, D (non-substituent)
[15] = read-out: IC50 HDAC11, HDAC11, 37° C. 30 minutes
[16] = read-out: IC50 HDAC3, HDAC3, 37° C. 30 minutes
[17] = HT1080 cells, 72 hours incubation, read-out: GI50 HT1
[18] = 72 hours, present invention, read-out: GI50 HT1080, a
[19] = Table 2, read-out: IC50 HDAC1, a (compounds of the present invention)
[20] = Table 3, column C, read-out: IC50 HDAC1, C (six-membered ring with substituents)

HDAC2, sequence (Q92769 whole entry, species assumed): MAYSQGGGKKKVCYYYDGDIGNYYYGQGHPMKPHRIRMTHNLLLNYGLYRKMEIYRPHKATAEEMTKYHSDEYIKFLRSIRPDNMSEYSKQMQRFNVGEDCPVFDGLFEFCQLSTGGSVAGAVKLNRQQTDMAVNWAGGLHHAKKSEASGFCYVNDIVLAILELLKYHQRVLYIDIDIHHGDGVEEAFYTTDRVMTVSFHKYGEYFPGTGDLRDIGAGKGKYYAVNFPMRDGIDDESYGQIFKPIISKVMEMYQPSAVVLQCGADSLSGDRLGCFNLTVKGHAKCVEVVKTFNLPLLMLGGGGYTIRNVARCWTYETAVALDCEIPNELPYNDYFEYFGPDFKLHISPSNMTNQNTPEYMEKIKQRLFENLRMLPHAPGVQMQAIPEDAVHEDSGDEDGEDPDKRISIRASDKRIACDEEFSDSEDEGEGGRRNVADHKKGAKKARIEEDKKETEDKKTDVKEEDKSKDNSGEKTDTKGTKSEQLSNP
HDAC3, sequence (O15379 whole entry, species assumed): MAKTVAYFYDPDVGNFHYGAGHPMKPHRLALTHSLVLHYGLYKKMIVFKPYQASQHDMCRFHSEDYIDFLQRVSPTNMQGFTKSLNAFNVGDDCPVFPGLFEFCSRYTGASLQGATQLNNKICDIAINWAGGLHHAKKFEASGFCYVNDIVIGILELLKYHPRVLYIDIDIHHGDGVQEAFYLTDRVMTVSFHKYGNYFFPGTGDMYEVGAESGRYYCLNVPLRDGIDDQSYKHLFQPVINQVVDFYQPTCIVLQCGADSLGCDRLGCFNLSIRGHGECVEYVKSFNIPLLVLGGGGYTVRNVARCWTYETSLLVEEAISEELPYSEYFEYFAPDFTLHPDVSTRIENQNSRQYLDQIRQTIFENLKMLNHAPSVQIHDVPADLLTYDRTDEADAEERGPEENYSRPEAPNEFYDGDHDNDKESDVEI
HDAC3, sequence (Q9Y618 395-489 partner limits assumed, species assumed): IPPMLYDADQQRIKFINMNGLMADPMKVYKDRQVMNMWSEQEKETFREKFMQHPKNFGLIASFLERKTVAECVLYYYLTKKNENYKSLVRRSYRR
HDAC1, sequence (Q13547 whole entry, species assumed): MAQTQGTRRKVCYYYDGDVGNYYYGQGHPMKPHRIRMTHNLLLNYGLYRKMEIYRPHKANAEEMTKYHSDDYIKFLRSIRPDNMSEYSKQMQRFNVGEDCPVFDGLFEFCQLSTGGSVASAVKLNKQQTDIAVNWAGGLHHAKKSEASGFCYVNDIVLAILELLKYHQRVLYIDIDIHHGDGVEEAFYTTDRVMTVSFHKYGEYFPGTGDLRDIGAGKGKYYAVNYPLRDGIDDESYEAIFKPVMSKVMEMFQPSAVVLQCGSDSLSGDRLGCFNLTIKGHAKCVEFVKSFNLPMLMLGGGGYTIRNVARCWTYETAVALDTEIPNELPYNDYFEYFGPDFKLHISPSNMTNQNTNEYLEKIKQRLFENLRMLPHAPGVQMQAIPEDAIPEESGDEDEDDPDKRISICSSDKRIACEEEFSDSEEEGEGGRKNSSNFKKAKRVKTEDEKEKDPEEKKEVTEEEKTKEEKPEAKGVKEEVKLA

| GI50 [1, 12] [nM] | GI50 [2] [nM] | GI50 [3] [nM] | GI50 [4] [nM] | GI50 [5] [nM] | pIC50 [6, 13] | pIC50 [6, 14] | pIC50 [7] | pIC50 [8, 15] | pIC50 [9, 16] | IC50 HDAC7 [10] | pIC50 [11] | GI50 [1, 17] [nM] | GI50 [1, 18] [nM] | pIC50 [6, 19] | pIC50 [8] | pIC50 [9] | pIC50 [6, 20] | SMILES |
| --- | --- | --- | --- | --- | --- | --- | --- | --- | --- | --- | --- | --- | --- | --- | --- | --- | --- | --- |
| 80 | 28 | 65 | 86 | 33 | 7.12 | 7.12 | 7.20 | 6.87 | 7.21 | no activity | 7.23 |  |  |  |  |  |  | C/C=C1\NC(=O)c2cccc(n2)CNC(=O)C[C@@H](/C=C/CCSC(=O)CC)OC(=O)[C@H](C(C)C)NC1=O [Compound 6] |
|  | 31 | 79 | 88 | 55 | 7.72 |  | 7.26 |  |  | no activity | 7.37 | 30 | 330 | > 7.70 | 7.17 | 7.49 |  | C/C=C1\NC(=O)c2cccc(n2)CNC(=O)C[C@@H](/C=C/CCSC(=O)CCCCCCC)OC(=O)[C@H](CSCC)NC1=O [Compound 242] |
| 10 | 18 | 179 | 29 | 78 | 7.39 | 7.39 | 7.52 | 6.42 | 7.46 | no activity | 7.66 |  |  | > 7.30 |  |  |  | C/C=C1\NC(=O)c2cccc(n2)CNC(=O)C[C@@H](/C=C/CCSC(=O)CCCCCCC)OC(=O)[C@H](C(C)C)NC1=O [Compound 1] |
| 90 | 53 | 91 | 91 | 27 | 7.35 |  | 7.28 | 6.97 | 7.42 | no activity | 7.21 |  |  |  |  |  | 7.35 | C/C=C1\NC(=O)c2cc(F)cc(n2)CNC(=O)C[C@@H](/C=C/CCSC=O)OC(=O)[C@H](C(C)C)NC1=O [Compound 52] |
| 80 | 61 | 83 | 83 | 16 | 7.64 |  | 7.23 | 7.05 | 7.44 | no activity | 7.37 |  |  |  |  |  | 7.64 | C/C=C1\NC(=O)c2nc(ccc2F)CNC(=O)C[C@@H](/C=C/CCSC(=O)CCCCCC)OC(=O)[C@H](C(C)C)NC1=O [Compound 33] |
| 60 | 67 | 61 | 61 | 33 | 7.19 |  | 7.60 |  |  | no activity | 7.49 |  |  |  | 7.04 | 7.39 |  | C/C=C1\NC(=O)c2nc(ccc2F)CNC(=O)C[C@@H](/C=C/CCSC(=O)CC)OC(=O)[C@H](C(C)C)NC1=O [Example 45] |
| 80 | 38 | 26 | 95 | 73 | 7.04 | 7.04 | 7.30 |  |  | no activity | 7.17 |  |  |  | 6.99 | 7.39 |  | C/C=C1\NC(=O)c2cccc(n2)CNC(=O)C[C@@H](/C=C/CCSC(C)=O)OC(=O)[C@H](CC)NC1=O [Compound 10] |
| 100 | 31 | 78 | 18 | 32 | 7.29 |  | 7.54 |  |  | no activity | 7.54 |  |  |  | 7.08 | 7.59 |  | C/C=C1\NC(=O)c2cccc(n2)CNC(=O)C[C@@H](/C=C/CCS)OC(=O)[C@@H](C)NC1=O [Compound 145] |
| 200 | 31 | 29 | 85 | 25 | 6.73 | 6.73 | 6.80 | 7.03 | 6.47 | no activity | 6.58 |  |  |  |  |  |  | C/C=C1\NC(=O)c2cccc(n2)CNC(=O)C[C@@H](/C=C/CCSC(C)=O)OC(=O)[C@H](Cc2ccccc2)NC1=O [Compound 13] |
|  | 26 | 29 | 31 | 65 | 7.36 |  | 7.11 | 7.19 | 7.23 | no activity | 7.08 | 20 | 26 | > 7.30 |  |  |  | C/C=C1\NC(=O)c2cccc(n2)CNC(=O)C[C@@H](/C=C/CCSC(=O)CCCCCCC)OC(=O)[C@H](c2ccc(O)cc2)NC1=O [Compound 238] |
| 70 | 38 |  | 73 | 52 | 7.57 |  | 7.37 | 7.03 | 7.34 | no activity | 7.29 |  |  |  |  |  | 7.57 | C/C=C1\NC(=O)c2cc(F)cc(n2)CNC(=O)C[C@@H](/C=C/CCSC(=O)CCC)OC(=O)[C@H](C(C)C)NC1=O [Compound 43] |
| 40 | 61 | 43 | 43 | 39 | 7.15 |  |  |  |  | no activity | 7.59 |  |  |  | 7.08 | 7.41 |  | C/C=C1\NC(=O)c2ccc(F)c(n2)CNC(=O)C[C@@H](/C=C/CCSC(=O)CC)OC(=O)[C@H](C(C)C)NC1=O [Example 47] |
|  | 53 |  |  | 52 | 7.48 |  | 7.47 | 7.01 | 7.62 | no activity | 7.37 |  |  |  |  |  | 7.48 | C/C=C1\NC(=O)c2cc(F)cc(n2)CNC(=O)C[C@@H](/C=C/CCSC(=O)CCCCCCC)OC(=O)[C@H](Cc2ccccc2)NC1=O [Compound 70] |
